Results from ChEMBL document CHEMBL1201862, “PubChem BioAssay data set” (2004).
The source made the active and inactive calls.

Experiments:
[1] = Luminescence Cell-Based Dose Response HTS to Identify Activators of 5'UTR Stem-Loop Driven Prion Protein mRNA Translation in H4-C Neuroglioblastoma Cells. [Related pubchem assays: 1829 (Project Summary), 1814 (Primary HTS)]; type: functional
H4 = assay: Luminescence Cell-Based Dose Response HTS to Identify Activators of 5'UTR Stem-Loop Driven Prion Protein mRNA Translation in H4 Neuroglioblastoma Cells. [Related pubchem assays: 1829 (Project Summary), 1814 (Primary HTS)]; type: functional; details: Homo sapiens
[2] = Luminescence Cell-Based Dose Response HTS to Identify Activators of Luciferase Translation or Activity in H4-C Neuroglioblastoma Cells. [Related pubchem assays: 1829 (Project Summary), 1814 (Primary HTS)]; type: functional
[3] = target: T1, Zinc finger protein mex-5 (Caenorhabditis elegans, UniProt Q9XUB2); assay: potency of MEX-5 RNA-binding blockers – biochemical, C. elegans, fluorescence polarization, dose response (AID 1960)
T1 sequence (Q9XUB2 whole entry): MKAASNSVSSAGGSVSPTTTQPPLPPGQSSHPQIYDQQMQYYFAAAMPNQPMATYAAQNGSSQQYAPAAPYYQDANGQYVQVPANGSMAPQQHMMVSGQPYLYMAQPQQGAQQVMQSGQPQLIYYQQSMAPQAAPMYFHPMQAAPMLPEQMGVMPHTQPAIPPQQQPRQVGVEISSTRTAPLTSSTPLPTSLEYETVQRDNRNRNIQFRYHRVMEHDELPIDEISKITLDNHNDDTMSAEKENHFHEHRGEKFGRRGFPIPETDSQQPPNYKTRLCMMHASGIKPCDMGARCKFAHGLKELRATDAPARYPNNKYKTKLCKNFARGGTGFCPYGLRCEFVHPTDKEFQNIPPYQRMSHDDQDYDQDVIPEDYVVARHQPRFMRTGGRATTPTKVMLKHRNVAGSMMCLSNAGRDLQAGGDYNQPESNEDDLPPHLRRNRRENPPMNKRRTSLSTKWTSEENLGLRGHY

[4] = Luminescence Cell-Based Dose Response HTS to Identify Activators of Luciferase Translation or Activity in H4 […] Cells. [Related pubchem assays: 1829 (Project Summary), 1814 (Primary HTS)]; type: functional
[5] = target: T2, RNA-binding protein pos-1 (Caenorhabditis elegans, UniProt G5EF15); assay: disruptors of C. elegans POS-1 RNA interaction – biochemical, fluorescence polarization, dose response (AID 1964);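 further: purified POS-1 fused to maltose binding protein made in E. coli; potency of compounds blocking POS-1 binding to fluorescent RNA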
T2 sequence (G5EF15 whole entry): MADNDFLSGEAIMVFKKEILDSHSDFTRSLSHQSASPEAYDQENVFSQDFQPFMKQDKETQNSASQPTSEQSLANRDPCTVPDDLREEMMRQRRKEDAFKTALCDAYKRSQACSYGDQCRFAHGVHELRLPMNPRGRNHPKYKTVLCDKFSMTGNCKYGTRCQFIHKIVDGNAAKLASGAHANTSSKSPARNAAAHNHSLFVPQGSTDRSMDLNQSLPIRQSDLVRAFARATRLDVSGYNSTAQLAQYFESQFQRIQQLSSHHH

[6] = Luminescence Cell-Based Dose Confirmation HTS to Identify Activators of 5'UTR Stem-Loop Driven Alpha-Synuclein mRNA Translation in H4 Neuroglioblastoma Cells. [Related pubchem assays: 1829 (Project Summary), 1814 (Primary HTS)]; type: functional
Vero [7] = assay: cells; type: functional; details: Chlorocebus sabaeus
[8] = Luminescence Cell-Based Dose Retest to Confirm Activators of 5'UTR Stem-Loop Driven Alpha-Synuclein mRNA Translation in H4 Neuroglioblastoma Cells. [Related pubchem assays (depositor defined):AID1813, AID1829]; type: functional
[9] = A Cell Based Assay for the Identification of Probe candidate Compounds with Anti- Venezuelan Equine Encephalitis virus. [Related pubchem assays: 2409, 2419, 1621, 2238, 2405, 2024, 2065, 2402, 2414, 1635, 1650, 2244 ]; type: functional
Vero [10] = assay: antiviral protection of cells from WNV – synthesized analogs, SAR follow-up (AID 2238); type: functional, cell-based; details: Chlorocebus sabaeus
Vero [11] = assay: inhibition of WNV-induced cytopathic effect – cell-based, CPE readout (AID 1621); type: functional; details: Chlorocebus sabaeus
Vero [12] = assay: Vero cell viability after compound exposure – synthesized analogs, set II, cytotoxicity control for West Nile virus antiviral project, SAR follow-up (AID 2402); type: functional; details: Chlorocebus sabaeus
Vero [13] = assay: host cell viability loss, Vero E6 – synthesized analogs, cytotoxicity control for West Nile virus antiviral project, SAR follow-up (AID 2244); type: functional; details: Chlorocebus sabaeus
Vero [14] = assay: Vero 76 cell viability after compound exposure – Vero 76 cells, synthesized analogs, cytotoxicity control for West Nile virus antiviral project, SAR follow-up (AID 2414); type: functional; details: Chlorocebus sabaeus
[15] = target: G-protein coupled receptor 55 (Homo sapiens, UniProt Q9Y2T6); assay: selective activators of receptor GPR55 – imaging, U2OS cells, beta-arrestin-GFP redistribution, primary screen (AID 1961); type: functional
[16] = target: Arf-GAP with SH3 domain, ANK repeat and PH domain-containing protein 1 (Homo sapiens, UniProt Q9ULH1); type: functional;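 further: biochemical fluorescence polarization dose–response screen measuring inhibition of ASAP1; ASAP1 GAP domain stimulating GTP hydrolysis by truncated human ARF1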
[17] = target: T3, Endoribonuclease toxin MazF (Escherichia coli K-12, UniProt P0AE70); assay: activation of MazEF endoribonuclease cleavage – biochemical, fluorescence, single-stranded RNA substrate, uHTS hits, dose response (AID 588481); type: functional
T3 sequence (P0AE70 whole entry): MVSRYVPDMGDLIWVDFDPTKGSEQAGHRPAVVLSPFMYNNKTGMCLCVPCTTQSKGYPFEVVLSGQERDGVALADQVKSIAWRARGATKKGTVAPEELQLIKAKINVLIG

[18] = viability of HCT116 lacking mutant beta-catenin – cell-based, human colon tumor, dose response (AID 1045); type: functional;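 further: HCT116 colon tumor cells with beta catenin knocked out; cells exposed to compound for 60 hours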
[19] = target: T4, Ubiquitin-conjugating enzyme E2 N (Homo sapiens, UniProt P61088); type: functional;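 further: Dose-response confirmation in a TR-FRET assay detecting UBC13-driven polyubiquitin chain formation, inhibition measured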
T4 sequence (P61088 whole entry): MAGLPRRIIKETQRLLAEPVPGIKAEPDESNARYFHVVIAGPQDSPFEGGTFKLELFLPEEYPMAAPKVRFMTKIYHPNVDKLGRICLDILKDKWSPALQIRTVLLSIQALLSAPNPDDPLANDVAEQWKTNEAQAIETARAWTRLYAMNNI

[20] = target: Neurotensin receptor type 1 (Homo sapiens, UniProt P30989); type: functional;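 further: Image-based confirmatory dose-response assay measuring agonist activity at NTR1; NTR1-expressing U2OS osteosarcoma cells imaged for beta-arrestin GFP spot formation; agonist potency where compounds increase beta-arrestin recruitment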
[21] = target: T3, Endoribonuclease toxin MazF; assay: substrate-only fluorescence increase artefacts – biochemical, single-stranded RNase substrate, counter-screen for MazEF activator project, dose response (AID 588502); type: functional
[22] = viability of PTEN-deleted HCT116 cells – cell-based, HCT116 PTEN knockout, dose response (AID 1047); type: functional;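 further: HCT116 colon tumor cells with PTEN knocked out; cells exposed to compound for 60 hours before readout; potency for loss of cell viability measured by luminescence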
[23] = target: Intestinal-type alkaline phosphatase (Homo sapiens, UniProt P09923); assay: Dose Response confirmation of uHTS hits from a small molecule inhibitors of human intestinal alkaline phosphatase via a luminescent assay. [Related pubchem assays (depositor defined):AID2544, AID2574]; type: functional
Hexokinase = Hexokinase (Trypanosoma brucei, UniProt Q38C41); assay: Confirmation assay for inhibitors of Trypanosoma brucei hexokinase 1-Analogue-first series. [Related pubchem assays (depositor defined):AID1430, AID1632, AID2516, AID2560, AID2579, AID2600, AID449725, AID492951]; type: functional
[24] = target: T5, Kappa-type opioid receptor (Homo sapiens, UniProt P41145); assay: SAR analysis of small molecule antagonists of the kappa opioid receptor via a luminescent beta-arrestin assay - Set 3. [Related pubchem assays (depositor defined):AID1777, AID1778, AID1785, AID1786, AID1966, AID2133, AID2136, AID2285, AID2495]; type: functional
Mu-type opioid receptor = Mu-type opioid receptor (Homo sapiens, UniProt P35372); assay: SAR Analysis of Antagonists of the MOR Receptor using an Image-Based Assay - Set 3. [Related pubchem assays (depositor defined):AID1777, AID1785, AID1786, AID1966, AID2133, AID2136, AID2284, AID2285, AID2420]; type: functional
[25] = target: Delta-type opioid receptor (Homo sapiens, UniProt P41143); assay: SAR Analysis of Antagonists of the DOR Receptor using an Image-Based Assay - Set 3. [Related pubchem assays (depositor defined):AID1777, AID1785]; type: functional;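 further: U2OS cells expressing DOR1 and beta-arrestin GFP stimulated with 100 nM SNC80; imaging of GFP-tagged beta-arrestin moving into spots after receptor activation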
[26] = target: T5, Kappa-type opioid receptor; assay: SAR analysis of Antagonists of the Kappa Opioid Receptor (KOR) using an Image-Based Assay - Set 3. [Related pubchem assays (depositor defined):AID1777, AID1785]; type: functional

T5 sequence (P41145 whole entry): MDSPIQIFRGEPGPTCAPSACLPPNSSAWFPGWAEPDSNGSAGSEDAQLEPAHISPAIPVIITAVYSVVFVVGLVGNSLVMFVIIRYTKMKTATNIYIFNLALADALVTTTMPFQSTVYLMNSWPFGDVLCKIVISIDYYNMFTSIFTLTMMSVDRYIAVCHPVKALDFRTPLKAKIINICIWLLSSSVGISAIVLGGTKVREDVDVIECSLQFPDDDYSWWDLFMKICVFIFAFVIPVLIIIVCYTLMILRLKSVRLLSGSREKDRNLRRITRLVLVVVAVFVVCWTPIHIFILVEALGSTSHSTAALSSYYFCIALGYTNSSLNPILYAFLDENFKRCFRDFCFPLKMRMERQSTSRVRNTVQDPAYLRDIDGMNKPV
Delta-type opioid receptor, sequence (P41143 whole entry): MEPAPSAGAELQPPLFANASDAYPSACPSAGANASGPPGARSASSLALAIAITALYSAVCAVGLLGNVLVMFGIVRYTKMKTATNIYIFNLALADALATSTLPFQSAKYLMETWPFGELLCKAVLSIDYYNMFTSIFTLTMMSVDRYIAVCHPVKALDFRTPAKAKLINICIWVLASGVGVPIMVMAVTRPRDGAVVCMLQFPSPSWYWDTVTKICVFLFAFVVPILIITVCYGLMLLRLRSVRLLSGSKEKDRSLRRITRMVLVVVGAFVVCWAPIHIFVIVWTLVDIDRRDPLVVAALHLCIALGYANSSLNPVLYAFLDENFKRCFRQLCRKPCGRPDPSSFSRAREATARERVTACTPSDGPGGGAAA
Hexokinase, sequence (Q38C41 whole entry): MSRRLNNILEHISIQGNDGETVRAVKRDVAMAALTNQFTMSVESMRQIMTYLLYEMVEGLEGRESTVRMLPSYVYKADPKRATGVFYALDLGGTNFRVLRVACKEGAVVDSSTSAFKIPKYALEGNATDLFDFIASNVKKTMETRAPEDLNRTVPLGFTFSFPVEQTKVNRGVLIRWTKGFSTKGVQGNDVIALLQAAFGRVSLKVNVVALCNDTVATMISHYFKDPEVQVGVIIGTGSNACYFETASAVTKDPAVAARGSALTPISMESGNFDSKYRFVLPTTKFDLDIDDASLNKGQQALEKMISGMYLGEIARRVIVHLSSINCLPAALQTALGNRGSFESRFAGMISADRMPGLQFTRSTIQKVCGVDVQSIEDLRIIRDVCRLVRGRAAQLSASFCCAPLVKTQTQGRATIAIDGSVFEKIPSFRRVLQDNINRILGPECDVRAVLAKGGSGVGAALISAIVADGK
Neurotensin receptor type 1, sequence (P30989 whole entry): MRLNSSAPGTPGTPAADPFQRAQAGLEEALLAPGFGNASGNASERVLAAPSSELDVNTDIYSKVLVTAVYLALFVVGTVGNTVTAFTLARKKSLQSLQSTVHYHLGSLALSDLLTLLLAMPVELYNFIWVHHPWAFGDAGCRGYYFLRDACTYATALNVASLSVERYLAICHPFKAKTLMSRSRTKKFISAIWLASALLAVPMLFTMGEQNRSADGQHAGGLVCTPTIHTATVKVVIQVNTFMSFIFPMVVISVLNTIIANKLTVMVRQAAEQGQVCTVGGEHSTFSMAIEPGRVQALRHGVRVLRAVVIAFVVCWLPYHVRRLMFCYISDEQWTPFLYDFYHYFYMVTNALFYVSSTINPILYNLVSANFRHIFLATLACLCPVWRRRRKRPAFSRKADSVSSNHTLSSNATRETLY
G-protein coupled receptor 55, sequence (Q9Y2T6 whole entry, the tested form may be a part): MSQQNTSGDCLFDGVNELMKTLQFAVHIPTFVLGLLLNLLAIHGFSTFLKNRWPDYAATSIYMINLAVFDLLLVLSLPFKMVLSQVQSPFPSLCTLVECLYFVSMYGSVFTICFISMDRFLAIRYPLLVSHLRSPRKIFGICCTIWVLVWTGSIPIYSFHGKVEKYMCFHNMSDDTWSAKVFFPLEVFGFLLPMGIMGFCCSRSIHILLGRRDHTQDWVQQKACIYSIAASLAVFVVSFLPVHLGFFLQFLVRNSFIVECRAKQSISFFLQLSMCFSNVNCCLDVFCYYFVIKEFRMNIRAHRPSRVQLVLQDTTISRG
Mu-type opioid receptor, sequence (P35372 whole entry): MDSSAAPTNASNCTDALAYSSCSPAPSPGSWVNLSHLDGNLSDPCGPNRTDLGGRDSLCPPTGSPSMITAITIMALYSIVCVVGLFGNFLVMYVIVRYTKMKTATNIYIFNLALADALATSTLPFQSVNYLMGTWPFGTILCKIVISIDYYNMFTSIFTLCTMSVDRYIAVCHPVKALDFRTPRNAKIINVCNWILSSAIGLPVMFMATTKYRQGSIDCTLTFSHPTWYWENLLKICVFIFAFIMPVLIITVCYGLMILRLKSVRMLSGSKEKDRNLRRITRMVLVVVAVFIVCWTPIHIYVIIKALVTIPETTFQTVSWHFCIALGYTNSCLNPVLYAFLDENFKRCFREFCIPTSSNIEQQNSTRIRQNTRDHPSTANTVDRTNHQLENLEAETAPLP
Intestinal-type alkaline phosphatase, sequence (P09923 whole entry): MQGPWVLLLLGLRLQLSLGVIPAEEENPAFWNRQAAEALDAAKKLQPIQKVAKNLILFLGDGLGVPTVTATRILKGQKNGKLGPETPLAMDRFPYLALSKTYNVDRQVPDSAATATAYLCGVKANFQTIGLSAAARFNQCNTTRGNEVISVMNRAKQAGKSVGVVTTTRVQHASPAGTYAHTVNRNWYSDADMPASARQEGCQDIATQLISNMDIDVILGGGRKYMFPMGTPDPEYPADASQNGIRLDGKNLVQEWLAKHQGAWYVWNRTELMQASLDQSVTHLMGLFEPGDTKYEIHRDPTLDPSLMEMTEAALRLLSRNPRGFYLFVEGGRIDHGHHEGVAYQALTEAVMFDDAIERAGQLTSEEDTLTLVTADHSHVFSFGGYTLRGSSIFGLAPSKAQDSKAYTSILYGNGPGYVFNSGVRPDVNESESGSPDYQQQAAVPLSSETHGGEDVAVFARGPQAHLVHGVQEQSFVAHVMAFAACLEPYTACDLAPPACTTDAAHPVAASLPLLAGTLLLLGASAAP
Arf-GAP with SH3 domain, ANK repeat and PH domain-containing protein 1, sequence (Q9ULH1 whole entry, the tested form may be a part): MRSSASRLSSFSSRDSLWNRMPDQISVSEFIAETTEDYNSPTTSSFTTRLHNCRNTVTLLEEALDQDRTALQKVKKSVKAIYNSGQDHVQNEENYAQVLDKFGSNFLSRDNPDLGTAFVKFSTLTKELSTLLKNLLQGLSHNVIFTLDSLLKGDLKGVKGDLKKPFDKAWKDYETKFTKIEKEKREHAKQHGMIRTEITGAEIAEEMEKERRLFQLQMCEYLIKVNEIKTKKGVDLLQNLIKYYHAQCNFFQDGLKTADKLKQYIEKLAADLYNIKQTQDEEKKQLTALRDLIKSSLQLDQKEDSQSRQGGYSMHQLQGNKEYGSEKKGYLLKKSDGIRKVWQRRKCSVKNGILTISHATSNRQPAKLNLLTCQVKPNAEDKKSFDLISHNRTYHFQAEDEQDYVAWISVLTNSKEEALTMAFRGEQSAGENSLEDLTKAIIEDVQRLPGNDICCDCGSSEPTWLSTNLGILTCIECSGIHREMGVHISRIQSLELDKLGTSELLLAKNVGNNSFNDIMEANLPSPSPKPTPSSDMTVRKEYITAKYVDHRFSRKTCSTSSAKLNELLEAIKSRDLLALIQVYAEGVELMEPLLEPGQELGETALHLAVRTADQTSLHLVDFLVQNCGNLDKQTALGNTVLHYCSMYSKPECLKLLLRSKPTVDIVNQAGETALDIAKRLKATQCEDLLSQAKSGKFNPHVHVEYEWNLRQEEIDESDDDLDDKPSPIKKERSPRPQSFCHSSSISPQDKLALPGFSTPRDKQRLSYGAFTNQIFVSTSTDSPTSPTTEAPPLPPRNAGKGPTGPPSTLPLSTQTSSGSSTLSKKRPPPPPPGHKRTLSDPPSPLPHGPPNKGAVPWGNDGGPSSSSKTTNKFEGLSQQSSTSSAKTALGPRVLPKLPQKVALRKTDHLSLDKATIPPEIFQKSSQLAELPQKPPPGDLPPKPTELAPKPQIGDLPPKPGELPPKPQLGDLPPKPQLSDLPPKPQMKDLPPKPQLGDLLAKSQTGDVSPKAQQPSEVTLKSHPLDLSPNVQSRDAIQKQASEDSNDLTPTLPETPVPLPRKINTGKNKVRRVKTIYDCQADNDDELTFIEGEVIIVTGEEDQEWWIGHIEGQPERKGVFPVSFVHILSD

COc1cc(/C=C2/C(=O)ON=C2C)ccc1OCc1ccccc1F
EC50 [1]: 10.3 µM (active) | EC50 (H4): > 120 µM (not active) | EC50 [2]: 2.06 µM (active) | EC50 [3]: > 300 µM (inconclusive) | EC50 [4]: 39.6 µM (active) | EC50 [5]: 60.2 µM (active) | EC50 [6]: 0.127 µM (active) | CC50 (Vero [7]): 22.3 µM (active) | EC50 [8]: 0.901 µM (active)

CC1CCCN(CCCNC(=O)c2cc3c(s2)-c2ccccc2OC3)C1 (stereo not given)
IC50 [9]: 9.94 µM (active) | IC50 (Vero [10]): > 40 µM (active) | CC50 (Vero [7]): > 25 µM (active) | IC50 (Vero [11]): 18.9 µM (active) | CC50 (Vero [12]): 9.23 µM (active) | CC50 (Vero [13]): 6.78 µM (active) | CC50 (Vero [14]): 19.6 µM (active)

COc1cc2c3nnc(-c4ccc(F)cc4)c-3cn(Cc3ccccc3)c2cc1OC
EC50 [15]: 0.921 µM (active) | IC50 [16]: 19.2 µM (inactive) | EC50 [17]: > 99 µM (inactive) | EC50 [18]: 5.84 µM (active) | IC50 [19]: > 20 µM (inactive) | EC50 [20]: 2.91 µM (active) | EC50 [21]: > 99 µM (inactive) | EC50 [22]: 5.91 µM (active)

Cc1cccc(SCc2noc(C(=O)NCC3CCCO3)c2C(=O)O)c1 (stereo not given)
IC50 [23]: > 100 µM (inactive)

O=C(Nc1ccccc1)c1cc(F)ccc1S
IC50 (Hexokinase): > 25 µM (inactive)

CCc1ccc(S(=O)(=O)NCc2ccc(C(=O)NCCN(Cc3ccc(OC)cc3)C(C)C)cc2)cc1
IC50 [24]: 0.873 µM (active) | IC50 (Mu-type opioid receptor): > 32 µM (inactive) | IC50 [25]: > 32 µM (inactive) | IC50 [26]: 0.264 µM (active)
